In ChEMBL document CHEMBL4400510, “Synthesis and antitubercular evaluation of reduced lipophilic imidazo[1,2-a]pyridine-3-carboxamide derivatives” (Eur J Med Chem, 2019):
Converted amounts (≈) assume the structure as drawn.

What was measured:
[1] = system: Mycobacterium tuberculosis; assay: Antitubercular activity against Mycobacterium tuberculosis H37Rv after 7 days by MABA method; assay type: functional; settings: 168 h
[2] = Cytotoxicity against African green monkey Vero cells measured after 72 hrs by MTT assay; assay type: cell-based; settings: chlorocebus sabaeus
[3] = Aqueous solubility of the compound in 0.01 M HCl at pH 2 after 12 hrs by UV-based HPLC analysis; assay type: physicochemical
[4] = AUC (0 to infinity) in ICR mouse at 25 mg/kg, po by HPLC analysis; assay type: ADME, organism-based; set-up: dose 25 mg/kg, route oral, time infinity; settings: in vivo
[5] = Cmax in ICR mouse at 25 mg/kg, po by HPLC analysis; assay type: ADME, organism-based; set-up: dose 25 mg/kg, route oral; settings: in vivo
[6] = Tmax in ICR mouse at 25 mg/kg, po by HPLC analysis; assay type: ADME, organism-based; settings: in vivo
[7] = Half life in ICR mouse at 25 mg/kg, po by HPLC analysis; assay type: ADME, organism-based; settings: in vivo

Compound	MIC90 [1] [µM]	CC50 at 72 h [2] [µM]	solubility at 12 h [3] [µg/mL]	AUC(0-inf) [4] [ng·h/mL]	Cmax [5] [ng/mL]	Tmax [6] [h]	half-life [7] [h]
CCc1nc2ccc(Cl)cn2c1C(=O)NCc1ccc(N2CC3CN(CC4CCCCC4)CC3C2)cc1 (configuration not stated)	< 0.035	> 100	628 (≈ 1210 µM)	9050	4180	0.25	4.27
CO[C@H]1/C=C/O[C@@]2(C)Oc3c(C)c(O)c4c(O)c(c(/C=N/N5CCN(C)CC5)c(O)c4c3C2=O)NC(=O)/C(C)=C\C=C\[C@H](C)[C@H](O)[C@@H](C)[C@@H](O)[C@@H](C)[C@H](OC(C)=O)[C@@H]1C [RIFAMPIN]	0.038 (≈ 0.0313 µg/mL)	–	–	–	–	–	–
CCc1nc2cc(Cl)ccn2c1C(=O)NCc1ccc(N2CCN(CCC3CCCCC3)CC2)cc1	1.59 (≈ 0.81 µg/mL)	–	–	–	–	–	–
CCc1nc2ccc(Cl)cn2c1C(=O)NCc1ccc(N2CC3CC2CN3CC2CCCCC2)cc1 (configuration not stated)	0.452 (≈ 0.229 µg/mL)	–	–	–	–	–	–
CCc1nc2ccc(Cl)cn2c1C(=O)NCc1ccc(N2CCN(Cc3ccc(OC(F)(F)F)cc3)CC2)cc1	< 0.035	–	–	–	–	–	–
CCc1nc2ccc(Cl)cn2c1C(=O)NCc1ccc(N2CCC3(CC2)CCN(c2ccc(OC(F)(F)F)cc2)CC3)cc1	< 0.035	70.2	1110 (≈ 1770 µM)	153000	7420	2.67	12.3
CCc1nc2cc(Cl)ccn2c1C(=O)NCc1ccc(N2CC3CC2CN3CC2CCCCC2)cc1 (configuration not stated)	1.27 (≈ 0.641 µg/mL)	–	–	–	–	–	–
O=c1nc(N2CCN(CC3CCCCC3)CC2)sc2c([N+](=O)[O-])cc(C(F)(F)F)cc12 [MACOZINONE]	< 0.035	–	–	–	–	–	–
CCc1nc2cc(Cl)ccn2c1C(=O)NCc1ccc(N2CCN(CC3CCCCC3)CC2)cc1	0.84 (≈ 0.415 µg/mL)	–	–	–	–	–	–
CCc1nc2ccc(Cl)cn2c1C(=O)NCc1ccc(N2CCN(CCC3CCCCC3)CC2)cc1	0.103 (≈ 0.0523 µg/mL)	–	–	–	–	–	–
CCc1nc2ccc(Cl)cn2c1C(=O)NCc1ccc(N2CCC(c3ccc(OC(F)(F)F)cc3)CC2)cc1 [TELACEBEC]	< 0.035	> 100	–	–	–	–	–
CCc1nc2ccc(Cl)cn2c1C(=O)NCc1ccc(N2CCN(CC3CCCCC3)CC2)cc1	< 0.035	53.5	1230 (≈ 2500 µM)	53800	24100	0.25	2.75
CCc1nc2cc(Cl)ccn2c1C(=O)NCc1ccc(N2CC3CCC2CN3CC2CCCCC2)cc1 (configuration not stated)	1.48 (≈ 0.769 µg/mL)	–	–	–	–	–	–
NNC(=O)c1ccncc1 [ISONIAZID]	0.277 (≈ 0.038 µg/mL)	–	–	–	–	–	–
CCc1nc2ccc(Cl)cn2c1C(=O)NCc1ccc(N2CC3CCC2CN3CC2CCCCC2)cc1 (configuration not stated)	0.062 (≈ 0.0322 µg/mL)	–	–	–	–	–	–
CCc1nc2ccc(Cl)cn2c1C(=O)NCc1ccc(N2CC3CN(Cc4ccc(OC(F)(F)F)cc4)CC3C2)cc1 (configuration not stated)	< 0.035	20.5	1130 (≈ 1880 µM)	19800	2670	0.83	5.23
CCc1nc2ccc(Cl)cn2c1C(=O)NCc1ccc(N2CC3CN(c4ccc(OC(F)(F)F)cc4)CC3C2)cc1 (configuration not stated)	0.058 (≈ 0.0339 µg/mL)	–	–	–	–	–	–
